Values joined by “and” are separate entries in the source; they are usually repeats but may differ in a detail not shown here. Identical values can stand only once. Counter-ions that a name gives are not always drawn. Like-named read-outs stand apart in the source and are kept apart here.
Assays:
primary rat microglia [1] = system: primary rat microglia;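 on Fibrin % cell toxicity: share of dead cells sized under 150 µm2 at 10 µM in fibrin-stimulated microglia HTS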
[2] = system: LPS-induced microglia activation; experiment: Image-based assay of LPS-induced microglia activation (HTS and dose response); type: cell-based, rat
[3] = system: fibrin- and LPS-induced microglia activation; experiment: cells; type: cell-based, rat; conditions: for inhibition at 10 µM: Rattus norvegicus, Microglia
[4] = system: fibrin-induced microglia activation; experiment: Image-based assay of fibrin-induced microglia activation (HTS and dose response); type: cell-based, rat; conditions: for inhibition at 10 µM: Rattus norvegicus, Microglia, read-out: Fibrin % inhibition
primary rat microglia [5] = system: primary rat microglia; remark: listed apart in the source;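 on Fibrin % cell toxicity: share of dead cells sized under 150 µm2 at 10 µM in fibrin-stimulated microglia HTS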
[6] = quadrant by fibrin and LPS inhibition, HTS at 10 μM
[7] = Rattus norvegicus, Microglia, read-out: LPS % inhibition
[8] = quadrant by fibrin and LPS inhibition in HTS of 1907 compounds
[9] = Rattus norvegicus, Microglia, 48 h, primary microglia HTS, LPS stimulation; increased cell size (>800 μm^2) as marker of activation; read-out: LPS % inhibition
[10] = primary microglia HTS, fibrin stimulation, increased cell size (>800 μm^2) as marker of activation
[11] = Rattus norvegicus, Microglia, 48 h, read-out: LPS % inhibition
[12] = Rattus norvegicus, Microglia, 48 h; read-out: LPS % inhibition
[13] = classification by fibrin and LPS inhibition in HTS
[14] = primary microglia HTS, fibrin stimulation, cell size >800 μm2 as marker of activation

| Compound | Quadrant (FIG. 5b) [3] | Fibrin % cell toxicity (primary rat microglia [1]; rat) [%] | LPS % cell toxicity (primary rat microglia [5]; rat) [%] | further results |
| --- | --- | --- | --- | --- |
| O=CCc1ccc(-c2ccccc2)cc1 | Q4 |  |  | Fibrin % cell toxicity (primary rat microglia [1]): 0%; LPS % inhibition ([2]; 10 µM): 7%; Fibrin % inhibition ([4]; 10 µM): −26%; LPS % cell toxicity (primary rat microglia [5]): 0% |
| CN(C)CCCN1c2ccccc2Sc2ccc(Cl)cc21.Cl | Q4 |  |  | Fibrin % cell toxicity (primary rat microglia [1]): 2%; LPS % inhibition ([2]; 10 µM): 25%; Fibrin % inhibition ([4]; 10 µM): 9%; LPS % cell toxicity (primary rat microglia [5]): 1% |
| C#CCN(C)CCCOc1ccc(Cl)cc1Cl.Cl | Q4 |  |  | Fibrin % cell toxicity (primary rat microglia [1]): 0%; LPS % inhibition ([2]; 10 µM): 6%; Fibrin % inhibition ([4]; 10 µM): −28%; LPS % cell toxicity (primary rat microglia [5]): 0% |
| O=P1(N(CCCl)CCCl)NCCCO1 (stereo not drawn) | Q4 |  |  | Fibrin % cell toxicity (primary rat microglia [1]): 0%; LPS % inhibition ([2]; 10 µM): 12%; Fibrin % inhibition ([4]; 10 µM): −15%; LPS % cell toxicity (primary rat microglia [5]): 0% |
| N[C@@H]1C[C@H]1c1ccccc1 (racemic) [Tranylcypromine] | Q4 |  |  | Fibrin % cell toxicity (primary rat microglia [1]): 1%; LPS % inhibition ([2]; 10 µM): −5%; Fibrin % inhibition ([4]; 10 µM): 5%; LPS % cell toxicity (primary rat microglia [5]): 0% |
| OCCc1ccccc1 [2-Phenyl-Ethanol] |  | 1 | 0 | inhibition at 10 µM ([2]; Rattus norvegicus, Microglia, primary microglia HTS, LPS stimulation, compounds at 10 μM; read-out: LPS % inhibition): 15%; Quadrant (FIG. 5b) [3, 6]: Q4; inhibition at 10 µM ([4]; primary microglia HTS, fibrin stimulation, compounds at 10 μM): -6% |
| O=c1ccc2ccccc2o1 [2H-1-BENZOPYRAN-2-ONE] | Q4 |  |  | Fibrin % cell toxicity (primary rat microglia [1]): 0%; LPS % inhibition ([2]; 10 µM): 13%; Fibrin % inhibition ([4]; 10 µM): −35%; LPS % cell toxicity (primary rat microglia [5]): 0% |
| CC(=O)Nc1ccc(O)cc1 [Acetaminophen] |  | 0 | 0 | inhibition at 10 µM [2, 7]: 22%; inhibition at 10 µM [4]: 14% |
| CCCCCCCCCCCCCCCC[n+]1ccccc1 [Cetylpyridinium Bromide] | Q2 | 25 | 39 |  |
| C=C1CC[C@H](O)C/C1=C/C=C1\CCC[C@]2(C)[C@@H]([C@H](C)CCCC(C)C)CC[C@@H]12 [Cholecalciferol] |  | 1 | 0 | Quadrant (FIG. 5b) ([3]; primary HTS, 10 μM): Q4; Fibrin % inhibition ([4]; primary HTS, 10 μM, fibrin-stimulated primary microglia): −10% and −17% |
| C(=C\c1ccccc1)/CN1CCN(C(c2ccccc2)c2ccccc2)CC1 [Cinnarizine] | Q4 | 1 | 0 |  |
| NC(=O)C(c1ccccc1)(c1ccccc1)[C@@H]1CCN(CCc2ccc3c(c2)CCO3)C1 [Darifenacin Hydrobromide] |  | 1 | 0 |  |
| C[C@@H]1C[C@H]2[C@@H]3CCC4=CC(=O)C=C[C@]4(C)[C@@]3(F)[C@@H](O)C[C@]2(C)[C@@]1(O)C(=O)COP(=O)(O)O [Dexamethasone Phosphate] |  | 5 | 2 | Quadrant (FIG. 5b) [3, 8]: Q2 |
| C[C@@H]1C[C@H]2[C@@H]3CCC4=CC(=O)C=C[C@]4(C)[C@@]3(F)[C@@H](O)C[C@]2(C)[C@@]1(O)C(=O)COP(=O)(O)O [Dexamethasone sodium phosphate, reference compound] | Q2 | 2 | 3 | inhibition at 10 µM ([3]; read-out: Cherry-picked Hit (Suppl. Table 7)): > 50%; inhibition at 10 µM ([3]; read-out: Hit): > 50% |
| CCN(CC)CCOC(=O)C1(C2CCCCC2)CCCCC1 [Dicyclomine] | Q4 | 0 | 0 |  |
| CN(C)CCC=C1c2ccccc2COc2ccccc21 [Doxepin] | Q4 | 1 | 0 | LPS % inhibition ([2]; 10 µM): 13%; inhibition at 10 µM [2, 7]: 16% |
| CCOc1cc(NC(C)=O)ccc1C(=O)OC [Ethopabate] | Q4 | 0 | 0 |  |
| CC(C)OC(=O)C(C)(C)Oc1ccc(C(=O)c2ccc(Cl)cc2)cc1 [Fenofibrate] |  | 1 | 0 | Quadrant (FIG. 5b) ([3]; classification by fibrin and LPS inhibition, HTS at 10 μM): Q4 |
| O=c1[nH]c(=O)n([C@H]2C[C@H](O)[C@@H](CO)O2)cc1F [Floxuridine] |  | 1 | 0 | Quadrant (FIG. 5b) [3, 8]: Q4 |
| CN1C2CCCC1CC(NC(=O)c1nn(C)c3ccccc13)C2 (stereo not drawn) [Granisetron Hydrochloride] |  | 0 | 0 | Quadrant (FIG. 5b) [3, 8]: Q4 |
| CN1C2CCCC1CC(NC(=O)c1nn(C)c3ccccc13)C2 (stereo not drawn) [Granisetron] |  | 1 | 0 | Quadrant (FIG. 5b) [3, 8]: Q4 |
| CN(C)CCCN1c2ccccc2CCc2ccccc21 [Imipramine] |  | 0 | 1 | inhibition at 10 µM [2, 9]: 60%; inhibition at 10 µM [4, 10]: -4% |

| Compound | Quadrant (FIG. 5b) [3] | Fibrin % cell toxicity (primary rat microglia [1]; rat) [%] | LPS % cell toxicity (primary rat microglia [5]; rat) [%] | further results |
| --- | --- | --- | --- | --- |
| CC(C)Cn1cnc2c(N)nc3ccccc3c21 [Imiquimod] | Q4 | 0 | 0 |  |
| CS(=O)(=O)CCNCc1ccc(-c2ccc3ncnc(Nc4ccc(OCc5cccc(F)c5)c(Cl)c4)c3c2)o1 [Lapatinib] |  | 1 | 0 | Quadrant (FIG. 5b) [3, 8]: Q4 |
| N[C@@H](Cc1cc(I)c(Oc2ccc(O)c(I)c2)c(I)c1)C(=O)O [Liothyronine] | Q4 | 1 | 1 | inhibition at 10 µM [2, 11]: 21% |
| CN(C)CCN(Cc1cccs1)c1ccccn1 [Methapyrilene] | Q4 | 1 | 0 |  |
| CC1(C)NC(=O)N(c2ccc([N+](=O)[O-])c(C(F)(F)F)c2)C1=O [Nilutamide] |  | 1 | 0 | Quadrant (FIG. 5b) [3, 8]: Q4 |
| Cc1ccccc1C(OCCN(C)C)c1ccccc1 (stereo not drawn) [Orphenadrine] | Q4 | 0 | 0 |  |
| C[C@@H]1O[C@@H](O[C@H]2C[C@@H](O)[C@]3(CO)[C@H]4[C@H](O)C[C@]5(C)[C@@H](C6=CC(=O)OC6)CC[C@]5(O)[C@@H]4CC[C@]3(O)C2)[C@H](O)[C@H](O)[C@H]1O [Ouabain] |  | 0 | 0 | Quadrant (FIG. 5b) [3, 8]: Q4 |
| Clc1ccc(CO/N=C(\Cn2ccnc2)c2ccc(Cl)cc2Cl)c(Cl)c1 [Oxiconazole] | Q4 | 1 | 1 |  |
| [H]/N=C(/N)N/C(=N/[H])NCCc1ccccc1 [Phenformin] | Q4 | 1 |  | inhibition at 10 µM [2, 11]: 13%; inhibition at 10 µM [4]: -30% |
| CC(=O)[O-].[Hg+][c]1ccccc1 [Phenylmercuric Acetate] |  | 82 | 80 |  |
| CC(=O)c1ccc2c(c1)N(CCCN1CCC(CCO)CC1)c1ccccc1S2 [Piperacetazine] |  | 0 |  | inhibition at 10 µM [2, 12]: 48%; Quadrant (FIG. 5b) [3, 13]: Q4; inhibition at 10 µM [4, 14]: -32% |
| COc1cc2nc(N3CCN(C(=O)c4ccco4)CC3)nc(N)c2cc1OC [Prazosin] |  | 3 | 77 | inhibition at 10 µM [2, 9]: 118%; inhibition at 10 µM [4, 10]: 43% |
| CCC1(c2ccccc2)C(=O)NCNC1=O [Primidone] | Q4 | 1 |  | inhibition at 10 µM [2, 11]: 12%; inhibition at 10 µM [4]: -15% |
| O=C(O)c1ccccc1O [Salicylic Acid] |  | 0 |  | inhibition at 10 µM [2, 12]: 14%; Quadrant (FIG. 5b) [3, 13]: Q4; inhibition at 10 µM [4, 14]: -32% |
| CN[C@H]1CC[C@@H](c2ccc(Cl)c(Cl)c2)c2ccccc21 [Sertraline] | Q4 | 1 | 0 |  |
| Clc1ccc(CSC(Cn2ccnc2)c2ccc(Cl)cc2Cl)cc1 (stereo not drawn) [Sulconazole] | Q4 | 1 | 1 |  |
| Clc1ccccc1CN1CCc2sccc2C1 [Ticlopidine] |  | 1 | 0 | inhibition at 10 µM [2, 7]: 22%; inhibition at 10 µM [4]: -13% |
| O=C(CCCCCCC(=O)Nc1ccccc1)NO [Vorinostat] |  | 89 | 50 | Quadrant (FIG. 5b) [3, 6]: Q2 |
| Betamethasone sodium phosphate [reference compound] | Q2 |  |  | Fibrin % cell toxicity (primary rat microglia [1]): 2%; Cherry-picked Hit (Suppl. Table 7) [3]: HIT (key: HIT: Hits were defined as molecules that exhibited greater than 50% inhibition of either fibrin or LPS activation); Hit [3]: HIT (key: HIT: Hits were defined as molecules that exhibited greater than 50% inhibition of either fibrin or LPS activation); LPS % cell toxicity (primary rat microglia [5]): 3% |
| Cinnarazine | Q4 |  |  | Fibrin % cell toxicity (primary rat microglia [1]): 1%; LPS % cell toxicity (primary rat microglia [5]): 0% |
| Pyrethrins |  |  |  | Fibrin % cell toxicity (primary rat microglia [1]): 0%; LPS % cell toxicity (primary rat microglia [5]): 0% |

Reference: patent US20210330611A1, “THERAPY FOR NEUROLOGICAL DISEASES/DISORDERS” (priority 2020, published 2021)
